Assay results taken from the kinase profiling compilation of Christmann-Franck et al. (2016).

Tests used:
Assay in all cases: radiometric filter-binding kinase assay, Kinase HotSpot
Conditions in all cases: compound 0.5 µM; ATP 10 µM
JAK3 JH1 JH2 (human) = JAK3 JH1 JH2 (human) (UniProt P52333)
AKT3 (human) = AKT3 (human) (UniProt Q9Y243)
FGFR2 (human) = FGFR2 (human) (UniProt P21802)
NEK1 (human) = NEK1 (human) (UniProt Q96PY6)
ERBB4 (human) = ERBB4 (human) (UniProt Q15303)
MATK (human) = MATK (human) (UniProt P42679)
STK3 (human) = STK3 (human) (UniProt Q13188)
TEK (human) = TEK (human) (UniProt Q02763)
LCK (human) = LCK (human) (UniProt P06239)
MAP3K11 (human) = MAP3K11 (human) (UniProt Q16584)
ERBB2 (human) = ERBB2 (human) (UniProt P04626)
CAMK1 (human) = CAMK1 (human) (UniProt Q14012)
PAK1 (human) = PAK1 (human) (UniProt Q13153)
MELK (human) = MELK (human) (UniProt Q14680)
NTRK1 (human) = NTRK1 (human) (UniProt P04629)
CAMKK2 (human) = CAMKK2 (human) (UniProt Q96RR4)
PKN2 (human) = PKN2 (human) (UniProt Q16513)
HIPK2 (human) = HIPK2 (human) (UniProt Q9H2X6)
DYRK3 (human) = DYRK3 (human) (UniProt O43781)
SRMS (human) = SRMS (human) (UniProt Q9H3Y6)
TXK (human) = TXK (human) (UniProt P42681)
CSF1R (human) = CSF1R (human) (UniProt P07333)
ACVR1B (human) = ACVR1B (human) (UniProt P36896)
ACVR1 (human) = ACVR1 (human) (UniProt Q04771)
ROCK1 (human) = ROCK1 (human) (UniProt Q13464)
DYRK4 (human) = DYRK4 (human) (UniProt Q9NR20)
AURKB (human) = AURKB (human) (UniProt Q96GD4)
PTK6 (human) = PTK6 (human) (UniProt Q13882)
MARK4 (human) = MARK4 (human) (UniProt Q96L34)
NEK9 (human) = NEK9 (human) (UniProt Q8TD19)
PTK2B (human) = PTK2B (human) (UniProt Q14289)
PRKCZ (human) = PRKCZ (human) (UniProt Q05513)
RIPK2 (human) = RIPK2 (human) (UniProt O43353)
WNK3 (human) = WNK3 (human) (UniProt Q9BYP7)
MAP3K2 (human) = MAP3K2 (human) (UniProt Q9Y2U5)
SGK3 (human) = SGK3 (human) (UniProt Q96BR1)
RPS6KA6 KD1 KD2 (human) = RPS6KA6 KD1 KD2 (human) (UniProt Q9UK32)
TGFBR2 (human) = TGFBR2 (human) (UniProt P37173)
PHKG2 (human) = PHKG2 (human) (UniProt P15735)
MERTK (human) = MERTK (human) (UniProt Q12866)
MAP2K1 (human) = MAP2K1 (human) (UniProt Q02750)
CSNK1A1 (human) = CSNK1A1 (human) (UniProt P48729)

Chain of PRKCZ (human) (Q05513 whole entry, looked up): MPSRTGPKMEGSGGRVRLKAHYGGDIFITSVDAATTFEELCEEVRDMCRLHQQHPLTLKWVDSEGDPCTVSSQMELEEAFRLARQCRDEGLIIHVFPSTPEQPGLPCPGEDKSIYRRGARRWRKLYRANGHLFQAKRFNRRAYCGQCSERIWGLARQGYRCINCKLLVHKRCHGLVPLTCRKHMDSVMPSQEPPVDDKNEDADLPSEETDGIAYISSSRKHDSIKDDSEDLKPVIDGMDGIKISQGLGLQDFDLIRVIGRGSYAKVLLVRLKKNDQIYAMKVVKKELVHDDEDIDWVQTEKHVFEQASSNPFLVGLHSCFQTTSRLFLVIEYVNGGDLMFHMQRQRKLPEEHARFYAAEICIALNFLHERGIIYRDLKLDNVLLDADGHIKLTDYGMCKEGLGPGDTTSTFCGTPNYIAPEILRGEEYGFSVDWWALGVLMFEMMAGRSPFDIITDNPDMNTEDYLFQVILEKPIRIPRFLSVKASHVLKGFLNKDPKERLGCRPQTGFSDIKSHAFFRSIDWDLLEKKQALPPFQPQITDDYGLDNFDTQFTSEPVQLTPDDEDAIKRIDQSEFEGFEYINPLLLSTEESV
Chain of MAP3K2 (human) (Q9Y2U5 whole entry, looked up): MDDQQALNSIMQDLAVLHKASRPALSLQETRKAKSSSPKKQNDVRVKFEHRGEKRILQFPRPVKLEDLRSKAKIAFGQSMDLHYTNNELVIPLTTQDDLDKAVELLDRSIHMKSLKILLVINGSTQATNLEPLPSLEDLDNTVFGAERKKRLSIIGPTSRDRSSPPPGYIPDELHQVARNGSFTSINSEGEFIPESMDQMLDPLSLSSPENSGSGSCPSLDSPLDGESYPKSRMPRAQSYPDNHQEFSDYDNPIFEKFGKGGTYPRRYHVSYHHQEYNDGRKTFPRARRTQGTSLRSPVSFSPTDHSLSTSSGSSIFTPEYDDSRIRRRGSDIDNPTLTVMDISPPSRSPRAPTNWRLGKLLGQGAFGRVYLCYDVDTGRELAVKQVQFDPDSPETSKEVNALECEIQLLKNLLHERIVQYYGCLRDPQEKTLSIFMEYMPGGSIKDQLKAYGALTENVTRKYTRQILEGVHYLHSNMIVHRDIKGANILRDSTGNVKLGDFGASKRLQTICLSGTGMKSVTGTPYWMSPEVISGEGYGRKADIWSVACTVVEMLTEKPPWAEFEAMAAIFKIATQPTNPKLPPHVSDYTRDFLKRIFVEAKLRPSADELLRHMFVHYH
Chain of MARK4 (human) (Q96L34 whole entry, looked up): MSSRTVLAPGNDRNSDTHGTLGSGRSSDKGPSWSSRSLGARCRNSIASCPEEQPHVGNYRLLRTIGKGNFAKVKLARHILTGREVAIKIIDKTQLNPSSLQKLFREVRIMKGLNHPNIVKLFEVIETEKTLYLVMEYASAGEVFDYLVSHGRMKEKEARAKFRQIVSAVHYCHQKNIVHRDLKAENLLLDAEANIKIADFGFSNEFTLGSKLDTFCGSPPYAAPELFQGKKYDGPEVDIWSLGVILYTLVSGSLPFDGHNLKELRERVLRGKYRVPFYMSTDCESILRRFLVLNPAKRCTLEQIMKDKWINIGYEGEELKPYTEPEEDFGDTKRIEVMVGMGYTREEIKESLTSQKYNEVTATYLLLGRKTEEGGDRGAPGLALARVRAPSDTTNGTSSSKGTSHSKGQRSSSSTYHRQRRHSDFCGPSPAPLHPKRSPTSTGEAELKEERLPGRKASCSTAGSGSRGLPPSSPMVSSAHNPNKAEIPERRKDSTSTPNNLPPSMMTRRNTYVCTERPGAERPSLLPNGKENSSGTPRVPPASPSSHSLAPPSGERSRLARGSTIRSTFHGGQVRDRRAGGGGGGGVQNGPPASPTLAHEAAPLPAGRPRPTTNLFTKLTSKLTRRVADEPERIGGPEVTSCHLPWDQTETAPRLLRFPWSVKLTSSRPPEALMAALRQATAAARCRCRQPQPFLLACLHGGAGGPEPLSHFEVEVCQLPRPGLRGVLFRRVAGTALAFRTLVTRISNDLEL
Chain of MAP2K1 (human) (Q02750 whole entry, looked up): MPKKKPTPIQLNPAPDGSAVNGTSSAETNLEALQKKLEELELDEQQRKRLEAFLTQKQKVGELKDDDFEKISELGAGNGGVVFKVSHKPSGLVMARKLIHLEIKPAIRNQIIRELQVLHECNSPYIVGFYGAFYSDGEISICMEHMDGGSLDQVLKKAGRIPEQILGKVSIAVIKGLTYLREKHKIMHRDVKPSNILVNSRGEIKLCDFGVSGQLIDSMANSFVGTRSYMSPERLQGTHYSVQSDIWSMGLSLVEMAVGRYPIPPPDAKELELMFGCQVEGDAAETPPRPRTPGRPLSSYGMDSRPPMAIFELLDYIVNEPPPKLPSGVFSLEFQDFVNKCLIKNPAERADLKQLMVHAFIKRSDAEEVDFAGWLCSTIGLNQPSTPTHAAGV
Chain of JAK3 JH1 JH2 (human) (P52333 whole entry, looked up): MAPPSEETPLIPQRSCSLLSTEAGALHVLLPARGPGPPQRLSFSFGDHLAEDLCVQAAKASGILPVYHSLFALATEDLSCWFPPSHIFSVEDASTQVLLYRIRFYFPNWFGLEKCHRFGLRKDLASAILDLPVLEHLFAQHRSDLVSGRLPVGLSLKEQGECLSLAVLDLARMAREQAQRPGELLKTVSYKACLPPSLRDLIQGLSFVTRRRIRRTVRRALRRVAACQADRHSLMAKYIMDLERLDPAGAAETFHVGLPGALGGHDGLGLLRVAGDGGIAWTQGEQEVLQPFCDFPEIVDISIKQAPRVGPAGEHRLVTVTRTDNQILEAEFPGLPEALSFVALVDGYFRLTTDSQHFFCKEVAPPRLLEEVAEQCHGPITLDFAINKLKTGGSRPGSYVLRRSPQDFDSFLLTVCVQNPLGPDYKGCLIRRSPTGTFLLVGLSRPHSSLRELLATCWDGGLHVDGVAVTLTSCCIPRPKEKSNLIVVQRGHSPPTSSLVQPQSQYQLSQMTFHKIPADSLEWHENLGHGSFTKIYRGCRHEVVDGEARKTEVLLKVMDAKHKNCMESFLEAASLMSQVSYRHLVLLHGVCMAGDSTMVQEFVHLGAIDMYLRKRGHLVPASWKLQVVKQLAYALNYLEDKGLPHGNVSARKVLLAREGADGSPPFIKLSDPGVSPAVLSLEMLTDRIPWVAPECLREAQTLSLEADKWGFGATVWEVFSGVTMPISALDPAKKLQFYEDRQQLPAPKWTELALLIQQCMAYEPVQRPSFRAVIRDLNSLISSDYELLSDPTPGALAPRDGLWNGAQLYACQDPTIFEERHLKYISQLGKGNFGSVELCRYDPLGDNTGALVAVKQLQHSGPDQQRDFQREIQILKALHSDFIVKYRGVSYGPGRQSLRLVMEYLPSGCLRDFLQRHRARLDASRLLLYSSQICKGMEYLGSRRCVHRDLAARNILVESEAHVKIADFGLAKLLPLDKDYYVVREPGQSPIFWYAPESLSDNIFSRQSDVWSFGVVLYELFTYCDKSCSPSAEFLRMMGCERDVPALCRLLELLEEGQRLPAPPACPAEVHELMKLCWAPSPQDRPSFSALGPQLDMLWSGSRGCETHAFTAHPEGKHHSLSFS
Chain of CAMKK2 (human) (Q96RR4 whole entry, looked up): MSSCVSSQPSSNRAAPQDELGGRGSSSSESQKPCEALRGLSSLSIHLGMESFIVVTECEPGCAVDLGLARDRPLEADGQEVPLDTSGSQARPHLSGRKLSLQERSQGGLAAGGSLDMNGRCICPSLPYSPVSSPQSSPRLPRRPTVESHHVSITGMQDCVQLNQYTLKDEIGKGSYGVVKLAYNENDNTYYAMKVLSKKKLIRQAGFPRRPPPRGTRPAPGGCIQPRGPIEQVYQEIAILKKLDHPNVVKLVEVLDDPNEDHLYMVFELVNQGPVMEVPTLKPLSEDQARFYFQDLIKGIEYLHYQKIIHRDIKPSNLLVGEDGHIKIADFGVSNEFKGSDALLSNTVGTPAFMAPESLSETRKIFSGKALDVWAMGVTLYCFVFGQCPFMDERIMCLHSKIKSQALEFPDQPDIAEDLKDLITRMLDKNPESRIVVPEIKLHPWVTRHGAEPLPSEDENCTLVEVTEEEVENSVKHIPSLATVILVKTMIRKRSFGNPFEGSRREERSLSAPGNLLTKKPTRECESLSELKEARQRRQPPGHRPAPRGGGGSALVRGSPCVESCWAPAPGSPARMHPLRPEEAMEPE
Chain of TXK (human) (P42681 whole entry, looked up): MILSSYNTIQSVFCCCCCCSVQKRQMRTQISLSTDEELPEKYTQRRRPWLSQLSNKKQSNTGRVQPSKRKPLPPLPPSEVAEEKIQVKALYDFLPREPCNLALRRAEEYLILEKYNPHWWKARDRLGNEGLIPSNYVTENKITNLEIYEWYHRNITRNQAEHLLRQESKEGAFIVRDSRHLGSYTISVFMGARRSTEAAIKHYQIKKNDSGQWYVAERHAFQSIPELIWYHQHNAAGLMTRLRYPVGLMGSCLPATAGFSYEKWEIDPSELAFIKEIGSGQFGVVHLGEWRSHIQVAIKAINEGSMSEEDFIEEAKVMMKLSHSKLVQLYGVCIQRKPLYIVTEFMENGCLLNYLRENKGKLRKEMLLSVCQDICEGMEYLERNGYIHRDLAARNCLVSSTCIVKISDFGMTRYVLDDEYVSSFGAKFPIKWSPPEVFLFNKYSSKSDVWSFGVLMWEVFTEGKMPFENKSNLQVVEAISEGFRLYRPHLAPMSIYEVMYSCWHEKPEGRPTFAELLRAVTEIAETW
Chain of PHKG2 (human) (P15735 whole entry, looked up): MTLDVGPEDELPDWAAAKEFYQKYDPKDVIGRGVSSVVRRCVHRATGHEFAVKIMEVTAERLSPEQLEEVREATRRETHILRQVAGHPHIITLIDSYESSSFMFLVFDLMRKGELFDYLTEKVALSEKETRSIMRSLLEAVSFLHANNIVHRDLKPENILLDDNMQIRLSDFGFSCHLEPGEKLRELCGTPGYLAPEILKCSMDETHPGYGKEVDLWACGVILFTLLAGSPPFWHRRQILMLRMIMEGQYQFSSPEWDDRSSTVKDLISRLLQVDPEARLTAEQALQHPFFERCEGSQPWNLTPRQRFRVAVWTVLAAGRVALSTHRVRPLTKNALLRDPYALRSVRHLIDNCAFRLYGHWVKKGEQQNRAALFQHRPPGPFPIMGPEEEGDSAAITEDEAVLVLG

Q: NC(=O)c1ccc(N(C(N)=O)c2c(F)cccc2F)nc1-c1ccc(F)cc1F was tested. Which residual activity (JAK3 JH1 JH2 (human)) did it give?
A: 95.7%

Q: What about the residual activity (AKT3 (human)) of the same compound?
A: 86.2%

Q: What about the residual activity (FGFR2 (human)) of the same compound?
A: 99.5%

Q: What about the residual activity (NEK1 (human)) of the same compound?
A: 69.6%

Q: And the residual activity (ERBB4 (human))?
A: 98.1%

Q: And the residual activity (MATK (human))?
A: 77.6%

Q: What about the residual activity (STK3 (human)) of the same compound?
A: 94.1%

Q: What about the residual activity (TEK (human)) of the same compound?
A: 96.7%

Q: And the residual activity (LCK (human))?
A: 86.3%

Q: And the residual activity (MAP3K11 (human))?
A: 105%

Q: What about the residual activity (ERBB2 (human)) of the same compound?
A: 106%

Q: And the residual activity (CAMK1 (human))?
A: 98.1%

Q: What about the residual activity (PAK1 (human)) of the same compound?
A: 110%

Q: What about the residual activity (MELK (human)) of the same compound?
A: 87.1%

Q: What about the residual activity (NTRK1 (human)) of the same compound?
A: 96.3%

Q: What about the residual activity (CAMKK2 (human)) of the same compound?
A: 101%

Q: What about the residual activity (PKN2 (human)) of the same compound?
A: 99.7%

Q: And the residual activity (HIPK2 (human))?
A: 100%

Q: And the residual activity (DYRK3 (human))?
A: 105%

Q: And the residual activity (SRMS (human))?
A: 92.9%

Q: What about the residual activity (TXK (human)) of the same compound?
A: 104%

Q: What about the residual activity (CSF1R (human)) of the same compound?
A: 109%

Q: And the residual activity (ACVR1B (human))?
A: 113%

Q: What about the residual activity (ACVR1 (human)) of the same compound?
A: 105%

Q: And the residual activity (ROCK1 (human))?
A: 108%

Q: What about the residual activity (DYRK4 (human)) of the same compound?
A: 96.3%

Q: And the residual activity (AURKB (human))?
A: 91.3%

Q: What about the residual activity (PTK6 (human)) of the same compound?
A: 98.7%

Q: And the residual activity (MARK4 (human))?
A: 102%

Q: And the residual activity (NEK9 (human))?
A: 104%

Q: What about the residual activity (PTK2B (human)) of the same compound?
A: 102%

Q: What about the residual activity (PRKCZ (human)) of the same compound?
A: 89.9%

Q: And the residual activity (RIPK2 (human))?
A: 101%

Q: And the residual activity (WNK3 (human))?
A: 96.6%

Q: What about the residual activity (MAP3K2 (human)) of the same compound?
A: 122%

Q: And the residual activity (SGK3 (human))?
A: 99.9%

Q: What about the residual activity (RPS6KA6 KD1 KD2 (human)) of the same compound?
A: 101%

Q: And the residual activity (TGFBR2 (human))?
A: 102%

Q: And the residual activity (PHKG2 (human))?
A: 93.1%

Q: And the residual activity (MERTK (human))?
A: 114%

Q: What about the residual activity (MAP2K1 (human)) of the same compound?
A: 89%

Q: Which residual activity (JAK3 JH1 JH2 (human)) does the source give for Nc1nc(Nc2ccc(S(N)(=O)=O)cc2)nn1C(=S)Nc1c(F)cccc1F here?
A: 5.21%

Q: And the residual activity (AKT3 (human))?
A: 96.4%

Q: What about the residual activity (FGFR2 (human)) of the same compound?
A: 7.43%

Q: And the residual activity (NEK1 (human))?
A: 6.11%

Q: And the residual activity (ERBB4 (human))?
A: 98%

Q: And the residual activity (MATK (human))?
A: 133%

Q: What about the residual activity (STK3 (human)) of the same compound?
A: 1.33%

Q: What about the residual activity (TEK (human)) of the same compound?
A: 5.06%

Q: What about the residual activity (LCK (human)) of the same compound?
A: 23.6%

Q: What about the residual activity (MAP3K11 (human)) of the same compound?
A: 1.33%

Q: And the residual activity (ERBB2 (human))?
A: 104%

Q: And the residual activity (PAK1 (human))?
A: 29%

Q: What about the residual activity (MELK (human)) of the same compound?
A: 32.7%

Q: And the residual activity (NTRK1 (human))?
A: 31.7%

Q: And the residual activity (CAMKK2 (human))?
A: 5.4%

Q: And the residual activity (PKN2 (human))?
A: 19.1%

Q: And the residual activity (HIPK2 (human))?
A: 62.1%

Q: What about the residual activity (DYRK3 (human)) of the same compound?
A: 98.5%

Q: And the residual activity (SRMS (human))?
A: 94%

Q: And the residual activity (TXK (human))?
A: 85.8%

Q: And the residual activity (CSF1R (human))?
A: 10.6%

Q: And the residual activity (ACVR1B (human))?
A: 92.2%

Q: And the residual activity (ACVR1 (human))?
A: 60.4%

Q: And the residual activity (ROCK1 (human))?
A: 0.17%

Q: And the residual activity (DYRK4 (human))?
A: 96.5%

Q: And the residual activity (AURKB (human))?
A: 12.9%

Q: What about the residual activity (PTK6 (human)) of the same compound?
A: 34.8%

Q: And the residual activity (MARK4 (human))?
A: 2.33%

Q: What about the residual activity (NEK9 (human)) of the same compound?
A: 39.1%

Q: What about the residual activity (PTK2B (human)) of the same compound?
A: 33.6%

Q: And the residual activity (PRKCZ (human))?
A: 83.7%

Q: And the residual activity (RIPK2 (human))?
A: 19.7%

Q: And the residual activity (WNK3 (human))?
A: 82.2%

Q: And the residual activity (MAP3K2 (human))?
A: -0.498%

Q: And the residual activity (SGK3 (human))?
A: 98.4%

Q: What about the residual activity (RPS6KA6 KD1 KD2 (human)) of the same compound?
A: 2.42%

Q: And the residual activity (TGFBR2 (human))?
A: 89.3%

Q: And the residual activity (PHKG2 (human))?
A: 95.5%

Q: What about the residual activity (MERTK (human)) of the same compound?
A: 14.8%

Q: What about the residual activity (MAP2K1 (human)) of the same compound?
A: 94.6%

Q: For Clc1ccc(Nc2nnc(Cc3ccncc3)c3ccccc23)cc1, which residual activity (JAK3 JH1 JH2 (human)) is on record?
A: 92.1%

Q: What about the residual activity (AKT3 (human)) of the same compound?
A: 89.9%

Q: What about the residual activity (FGFR2 (human)) of the same compound?
A: 96%

Q: What about the residual activity (NEK1 (human)) of the same compound?
A: 75.3%

Q: What about the residual activity (ERBB4 (human)) of the same compound?
A: 104%

Q: What about the residual activity (MATK (human)) of the same compound?
A: 78.1%

Q: What about the residual activity (STK3 (human)) of the same compound?
A: 92.1%

Q: What about the residual activity (TEK (human)) of the same compound?
A: 97.5%

Q: And the residual activity (LCK (human))?
A: 87%

Q: What about the residual activity (MAP3K11 (human)) of the same compound?
A: 106%

Q: And the residual activity (ERBB2 (human))?
A: 101%

Q: What about the residual activity (CAMK1 (human)) of the same compound?
A: 100%

Q: And the residual activity (PAK1 (human))?
A: 116%

Q: What about the residual activity (MELK (human)) of the same compound?
A: 83.7%

Q: What about the residual activity (NTRK1 (human)) of the same compound?
A: 98.7%

Q: What about the residual activity (CAMKK2 (human)) of the same compound?
A: 100%

Q: What about the residual activity (PKN2 (human)) of the same compound?
A: 99.9%

Q: What about the residual activity (HIPK2 (human)) of the same compound?
A: 101%

Q: And the residual activity (DYRK3 (human))?
A: 95.9%

Q: And the residual activity (SRMS (human))?
A: 91.8%

Q: What about the residual activity (TXK (human)) of the same compound?
A: 110%

Q: And the residual activity (ACVR1B (human))?
A: 108%

Q: And the residual activity (ACVR1 (human))?
A: 96.1%

Q: And the residual activity (ROCK1 (human))?
A: 110%

Q: And the residual activity (DYRK4 (human))?
A: 97.5%

Q: What about the residual activity (AURKB (human)) of the same compound?
A: 90%

Q: And the residual activity (CSNK1A1 (human))?
A: 95%

Q: What about the residual activity (MARK4 (human)) of the same compound?
A: 104%

Q: What about the residual activity (NEK9 (human)) of the same compound?
A: 98.4%

Q: And the residual activity (PTK2B (human))?
A: 102%

Q: What about the residual activity (PRKCZ (human)) of the same compound?
A: 69.5%

Q: What about the residual activity (RIPK2 (human)) of the same compound?
A: 111%

Q: And the residual activity (WNK3 (human))?
A: 99.1%

Q: What about the residual activity (MAP3K2 (human)) of the same compound?
A: 126%

Q: What about the residual activity (SGK3 (human)) of the same compound?
A: 99.2%

Q: What about the residual activity (RPS6KA6 KD1 KD2 (human)) of the same compound?
A: 99.7%

Q: And the residual activity (TGFBR2 (human))?
A: 100%

Q: What about the residual activity (PHKG2 (human)) of the same compound?
A: 91.8%

Q: And the residual activity (MERTK (human))?
A: 116%

Q: And the residual activity (MAP2K1 (human))?
A: 100%
